Measurements as given in paper PMC4255142 (Bioorganic & medicinal chemistry letters, 2014).

Tests used:
[1] = target: T1, holocarboxylase synthetase (HLCS) (Homo sapiens, UniProt P50747); assay: Competition studies with biotin; type: biochemical; conditions: for Mechanism of HLCS inhibition: competition studies with biotin; for apparent Vmax with inhibitor: 250 μM inhibitor, biotin varied 0-320 μM, n=4
T1 sequence (P50747 1-726): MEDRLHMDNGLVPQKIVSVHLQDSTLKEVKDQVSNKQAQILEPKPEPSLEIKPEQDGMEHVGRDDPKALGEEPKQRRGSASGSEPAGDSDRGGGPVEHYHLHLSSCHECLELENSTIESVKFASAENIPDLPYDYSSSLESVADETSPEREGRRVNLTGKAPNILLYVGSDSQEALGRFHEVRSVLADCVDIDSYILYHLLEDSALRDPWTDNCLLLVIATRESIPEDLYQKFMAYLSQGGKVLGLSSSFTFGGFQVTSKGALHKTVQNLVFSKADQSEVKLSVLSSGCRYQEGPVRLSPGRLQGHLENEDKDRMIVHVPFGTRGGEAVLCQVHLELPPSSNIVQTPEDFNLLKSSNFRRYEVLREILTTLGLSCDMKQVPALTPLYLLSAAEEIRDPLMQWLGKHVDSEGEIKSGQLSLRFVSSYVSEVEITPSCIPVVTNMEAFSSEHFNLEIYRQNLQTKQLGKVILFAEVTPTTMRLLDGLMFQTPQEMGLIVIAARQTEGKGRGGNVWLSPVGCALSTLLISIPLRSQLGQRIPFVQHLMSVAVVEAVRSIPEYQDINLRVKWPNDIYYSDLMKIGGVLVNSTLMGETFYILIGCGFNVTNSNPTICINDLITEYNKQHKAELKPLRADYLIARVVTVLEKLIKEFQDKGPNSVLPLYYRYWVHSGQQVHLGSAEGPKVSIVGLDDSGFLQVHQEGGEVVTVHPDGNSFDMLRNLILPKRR

[2] = target: T1, holocarboxylase synthetase (HLCS); assay: Inhibition of HLCS-catalysed biotinylation of recombinant p67; type: biochemical; conditions: data not shown

## Nc1ncnc2c1ncn2[C@@H]1O[C@H](COP(=O)(O)OCCCCC[C@@H]2SC[C@@H]3NC(=O)N[C@@H]32)[C@@H](O)[C@H]1O [biotinol-5'-AMP, biotinol-5′-AMP, reference compound]
[1]
  Mechanism of HLCS inhibition: mixed
[1]; listed as Biotinol-AMP
  Mechanism of HLCS inhibition: mixed inhibitor

## COP(=O)(O)CC(=O)CCCC[C@@H]1SC[C@@H]2NC(=O)N[C@@H]21 [compound 3]
[2]
  HLCS inhibition (negative control, in words): did not inhibit HLCS

## N.Nc1ncnc2c1ncn2[C@@H]1O[C@H](COP(=O)(O)CC(O)CCCC[C@@H]2SC[C@@H]3NC(=O)N[C@@H]32)[C@@H](O)[C@H]1O (stereo partly drawn) [β-hydroxyP, biotin β-hydroxyphosphonate-5′-AMP]
[1]
  apparent Vmax with inhibitor: 20.6±1.8 pmol biotinylated p67/(nmol HLCS x s)
  Mechanism of HLCS inhibition: competitive
[1]; listed as β-HydroxyP
  Mechanism of HLCS inhibition: competitive inhibitor

## N.Nc1ncnc2c1ncn2[C@@H]1O[C@H](COP(=O)(O)CC(=O)CCCC[C@@H]2SC[C@@H]3NC(=O)N[C@@H]32)[C@@H](O)[C@H]1O [β-ketoP, biotin β-ketophosphonate-5′-AMP]
[1]
  apparent Vmax with inhibitor: 31.5±1.6 pmol biotinylated p67/(nmol HLCS x s)
  Mechanism of HLCS inhibition: competitive
[1]; listed as β-KetoP
  Mechanism of HLCS inhibition: competitive inhibitor
